Data on 2 compounds can be found in US9249128B2 (priority 2010, dated 2016).

The target in one assay is T1, HSL (Mus musculus, UniProt P54310).
T1 construct: ABPP analysis of HSL from a rosiglitazone-differentiated 3T3-10T1/2 adipocyte proteome; endogenous in cells; host or cells: rosiglitazone-differentiated 3T3-10T1/2 adipocytes
T1 sequence (P54310 1-759): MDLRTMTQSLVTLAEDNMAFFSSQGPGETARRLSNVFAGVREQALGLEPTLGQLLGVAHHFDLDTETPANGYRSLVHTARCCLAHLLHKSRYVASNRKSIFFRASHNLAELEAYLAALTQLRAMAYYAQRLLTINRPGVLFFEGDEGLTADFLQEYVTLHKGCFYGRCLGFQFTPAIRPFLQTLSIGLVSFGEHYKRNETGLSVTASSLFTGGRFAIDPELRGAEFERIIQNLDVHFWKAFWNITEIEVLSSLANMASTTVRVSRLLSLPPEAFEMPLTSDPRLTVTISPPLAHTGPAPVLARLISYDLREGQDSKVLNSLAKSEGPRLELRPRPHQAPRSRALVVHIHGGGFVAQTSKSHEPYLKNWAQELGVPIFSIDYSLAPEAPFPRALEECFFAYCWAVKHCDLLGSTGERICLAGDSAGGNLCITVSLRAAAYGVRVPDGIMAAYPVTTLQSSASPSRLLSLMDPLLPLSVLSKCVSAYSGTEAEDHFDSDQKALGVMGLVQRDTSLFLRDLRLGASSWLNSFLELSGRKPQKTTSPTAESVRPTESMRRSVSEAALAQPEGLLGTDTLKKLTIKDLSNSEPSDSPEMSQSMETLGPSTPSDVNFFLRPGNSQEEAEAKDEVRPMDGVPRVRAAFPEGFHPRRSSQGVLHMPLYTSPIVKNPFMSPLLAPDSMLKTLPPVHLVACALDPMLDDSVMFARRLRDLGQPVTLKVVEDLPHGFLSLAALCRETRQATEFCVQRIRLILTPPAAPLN
The assay can be described thus: Competitive ABPP of HSL in rosiglitazone-differentiated 3T3-10T1/2 adipocyte proteome. The format is biochemical. The protocol:
For ABPP experiments, cell lysate and tissue proteomes were treated with 1 μM FP-rhodamine for 30 min at room temperature (50 μL total reaction volume) as described previously (Nomura et al., 2010). Reactions were quenched with one volume of standard 4×SDS/PAGE loading buffer (reducing), separated by SDS/PAGE (10% acrylamide), and visualized in-gel with a Hitachi FMBio IIe flatbed fluorescence scanner (MiraiBio). Inhibitors were preincubated prior (30 min or 4 h at 37° C. in vitro or in situ, respectively) to the addition of FP-rhodamine.

In assay [1] the test system is MAGE levels in PC3 and DU145 cells. The assay can be described thus: Lipid (MAGE) measurements in cancer cells. Type of assay: cell-based, human. Conditions: for MAGE levels: 10 μM, 4 h in situ. The protocol: (§1) Inhibitors were dissolved in DMSO and diluted into media or buffer prior to cell or proteome treatment, respectively. For in vitro treatment, final DMSO concentration was 4%. For in situ treatments of cells for ABPP, lipid measurements, migration, cell-survival, and invasion assays, 2×10^6 cells were seeded in 6 cm dishes (˜100% confluency) 24 h prior to inhibitor pre-treatment (in DMSO at 0.1% final concentration) in serum-free media (3 mL) for the designated time before harvesting cells for ABPP or lipid measurements or before the initiation of migration, cell-survival, and invasion assays.
Lipid measurements were performed in cancer cells as previously described (Chiang et al., 2006). Briefly, frozen cell pellets from cells harvested after 4 h serum starvation were extracted in 2:1:1 chloroform:methanol:Tris buffer pH 8.0 by dounce homogenization with 10 nmol of internal standard C12 MAGE. The organic layer was removed, dried under N2, and resuspended in 120 μL of chloroform, and 30 μL was injected into an Agilent 1100-MSD LC-MS. MAGE levels were quantified by measuring the area under the peak and were normalized to the C12 MAGE internal standard.

The test system of a further assay is PC3 and DU145 cells. The assay can be described thus: Serum-free cell survival assay (WST-1). Type of assay: cell-based, human. Conditions: for PC3 and DU145 serum-free cell survival: 10 μM, 4 h in situ. How it is done:
as §1
Cell migration, cell survival, and invasion studies were performed as previously described (Nomura et al., 2010). Briefly, migration assays were performed in Transwell chambers (Corning) with 8 μm pore-sized membranes coated with 10 μg/mL collagen at 37° C. for LNCaP (24 h), PC3 (4 h) and DU145 cells (24 h), respectively. Cell survival assays were performed using the Cell Proliferation Reagent WST-1 (Roche) Invasion assays were conducted using the BD Matrigel Invasion Chambers per the manufacturer's protocol. Inhibitors were preincubated for the stated duration before seeding cells into migration, cell-survival, or invasion chambers. Prior to seeding the cells in these chambers, cells were serum-starved for 4 h. Inhibitors were also present during the migration, cell-survival, and invasion assays.

The next assay concerns the target T2, KIAA1363 (Homo sapiens, UniProt Q6PIU2).
T2 sequence (Q6PIU2 1-408): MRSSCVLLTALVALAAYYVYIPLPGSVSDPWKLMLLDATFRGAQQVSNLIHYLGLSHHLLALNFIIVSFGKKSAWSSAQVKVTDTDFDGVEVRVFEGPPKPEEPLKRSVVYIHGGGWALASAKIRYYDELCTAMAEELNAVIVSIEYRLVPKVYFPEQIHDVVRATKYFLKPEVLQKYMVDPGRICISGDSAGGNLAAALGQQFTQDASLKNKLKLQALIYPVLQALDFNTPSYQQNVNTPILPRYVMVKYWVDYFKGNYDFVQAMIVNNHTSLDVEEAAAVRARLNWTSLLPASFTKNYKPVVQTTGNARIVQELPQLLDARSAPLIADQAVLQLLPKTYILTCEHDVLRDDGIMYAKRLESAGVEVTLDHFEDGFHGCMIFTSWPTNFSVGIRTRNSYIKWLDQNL
The assay can be described thus: 2-acetyl MAGE hydrolytic activity assay in cancer cells treated in situ. Type of assay: cell-based. Further details: PC3 cancer cells, which have high endogenous KIAA1363 levels; endogenous in cells; host or cells: PC3 (2-acetyl MAGE assay also DU145 and SKOV3). Conditions: JW480 1 μM, 48 h; PC3 and DU145 cells.

Experimental for KIAA1363: Cells were pretreated with KIAA1363 inhibitors in situ (for 4 hr in serum-free F-12K media before harvesting cells by scraping) or in vitro (for 30 min at 37° C. in PBS) before addition of 2-acetyl MAGE (100 μM) to cell lysates at room temperature for 30 min in a volume of 200 μL. Reactions were quenched with 600 μL 2:1 chloroform:methanol and 10 nmol of C12:0 MAGE internal standard was added. The organic layer was extracted and 30 μL injected into an Agilent 1100-MSD LC-MS. LC-MS settings were as previously described (Chiang et al., 2006). Product levels (C16:0 MAGE) were quantified in relation to the internal standard. Specific activity was determined during the linear phase of enzymatic reactions (i.e., less than 20% substrate utilized).
Cell lysates (20 μg) in Tris buffer were then incubated with lipid (100 mM, e.g., 2-acetyl MAGE for KIAA1363 activity) at room temperature for 30 min in a volume of 200 ml. Reactions were quenched with 600 ml 2:1 chloroform:methanol and 10 nmol of C12:0 MAGE internal standard was added. […] Product levels (C16:0 MAGE for KIAA1363 activity) were quantified in relation to internal standard levels and standard curves generated between varying lipid concentration versus constant internal standard levels. Specific activity was determined during the linear phase of enzymatic reactions (i.e., less than 20% substrate utilized)

Consider `CC(C)c1ccccc1OC(=O)NCCc1ccc2ccccc2c1` [JW480, 2-isopropylphenyl (2-(naphthalen-2-yl)ethyl)carbamate], for which the “Cross-reactivity with HSL” value on HSL is “negligible cross-reactivity”. Further, the MAGE lipids entry in assay [1] (1 μM, 48 hr) is reported as “significant reductions”. Moreover, the MAGE levels result in assay [1] is listed as “lower MAGE levels”. Moreover, the “Serum-free cell survival of PC3 cells” value in the assay on PC3 and DU145 cells (1 μM, 48 h in situ) is recorded as “reduced”. Further, the “PC3 and DU145 serum-free cell survival” value in the assay on PC3 and DU145 cells is listed as “impair”. Also, the “2-acetyl MAGE hydrolase activity” value on KIAA1363 is “completely blocked”.

In the case of `COc1ccc(CNC(=O)Oc2cccc3c2OC(C)(C)C3)cc1` [JW148, 2,2-dimethyl-2,3-dihydrobenzofuran-7-yl 4-methoxybenzylcarbamate], the “Cross-reactivity with HSL” value on HSL is given as “cross-reactivity”. For the same compound, the MAGE levels result in assay [1] was “lower MAGE levels”. In the assay on PC3 and DU145 cells, the “PC3 and DU145 serum-free cell survival” value is given as “impair”.
